From PMC9143043, “Synthesis and Biological Evaluation of 5′-O-Fatty Acyl Ester Derivatives of 3′-Fluoro-2′,3′-dideoxythymidine as Potential Anti-HIV Microbicides” (Molecules, 2022)
Entries after “also recorded” stand apart in the source; their conditions may differ. Where two headings read alike, the source gives them in different places.

Legend:
Format in all cases: cell-based
[1] = tested on: HIV-1 strain IIIB (lymphocytotropic strain); experiment: Single-round infection assay, cell-free X4 virus (lymphocytotropic strain); settings: Human immunodeficiency virus 1, IIIB
Method: (§1) Anti-HIV activities of the compounds were evaluated according to the previously reported procedure. In summary, the HeLa (Human cervical carcinoma: ATCC CCL-2.1) cell line was used to measure the inactivation of both the cell-free virus preparations and virus-infected cell preparations. The cells were plated in culture plates 24 h prior to each experiment. Cell-free viral preparations of HIV-1 strains IIIB (lymphocytotropic strain) and BaL (monocytotropic strain) were used for the cell-free assay. For the cell-associated assay, the SulT1 cells were infected with IIIB virus 5 days prior to the experiment. Cell-free virus and virus-infected cells were mixed with different compounds and diluted to make different concentrations. The mixture was further diluted with the buffer and added to the HeLa cells.

Cytotoxicity assay (MTS) = settings: human, HeLa cells (ATCC CCL-2.1)
[2] = tested on: HIV-1 strain BaL (monocytotropic strain); experiment: Single-round infection assay, cell-free R5 virus (monocytotropic strain); settings: Human immunodeficiency virus 1, BAL
Method: as §1

[3] = tested on: HIV-1 98USMSC5016 (C-Wild Type); experiment: PBMC multi-round infection assay, clinical isolate 98USMSC5016; settings: Human immunodeficiency virus 1
Method: (§2) Based on a preliminary screening, conjugates 5 and 8 were evaluated for their ability to inhibit a drug-resistant virus in a peripheral blood mononuclear cell (PBMC) assay. In this assay, FLT, 5, and 8 were tested against B- and C-wild type and A-17 and 4755–5 multidrug-resistant (MDR) clinical isolates of HIV-1, where compounds were incubated with PBMCs for 6 h and then washed off before the addition of the virus and further culture for 7 days.
(§3) For the assessment of compounds against the wild type (WT; R5; clones = 94US3393IN [B subtype] and 98USMSC5016 [C subtype]) and drug-resistant (clones = 4755−5 and A17) HIV-1 clinical isolates, PHA-P stimulated cells from at least two normal donors were pooled, diluted in fresh media, and plated in the interior wells of a 96-well round-bottom microplate. Pooling PBMCs from more than one donor was used to minimize the variability observed between the individual donors, which results from the quantitative and qualitative differences in HIV infection and overall response to the PHA and IL-2 of primary lymphocyte populations. Each plate contained virus/cell control wells (cells + virus), experimental wells (drug + cells + virus), and compound control wells (drug + media, no cells, necessary for MTS monitoring of cytotoxicity). Test drug dilutions were prepared in microtiter tubes, and each concentration was placed in appropriate wells. Following the addition of the drug dilutions to the PBMCs, a predetermined dilution of virus stock was then placed in each test well (final MOI ≅ 0.1). Because HIV-1 is not cytopathic to PBMCs, the same assay plate can be used for both the antiviral efficacy and cytotoxicity measurements. Compounds were incubated with virus and cells in a 96-well format for 6 h. The cells were then washed by removing 75% of the medium (150 μL) and replacing it with 150 μL of fresh (no drug) medium. The plates were then centrifuged (∼200 g) for 10 min, after which 150 μL of the medium was removed, and an additional 150 μL of fresh medium was added to each well and further incubated for 6 days or until peak reverse transcriptase (RT) activity was detected. A microtiter plate-based RT reaction was utilized. Incorporated radioactivity (counts per minute, CPM) was quantified using standard liquid scintillation techniques. Compound IC50 (50%, inhibition of virus replication) was calculated using statistical software and regression analysis. A cellular uptake study was conducted for fluorescence conjugates 23 and 24 using a previously published procedure with minor modifications. All of the experiments were conducted in triplicate.

HIV-1 4755-5 MDR (B-MDR) = experiment: PBMC multi-round infection assay, resistant isolate 4755-5; settings: Human immunodeficiency virus 1, PBMC
Method: as §2, §3

HIV-1 A-17 MDR (B-NNRTI) = experiment: PBMC multi-round infection assay, resistant isolate A-17; settings: Human immunodeficiency virus 1, PBMC
Method: as §2, §3

[4] = tested on: HIV-1 94US3393IN (B-Wild Type); experiment: PBMC multi-round infection assay, clinical isolate 94US3393IN; settings: Human immunodeficiency virus 1
Method: as §2, §3

[5] = tested on: cell-associated HIV-1 IIIB (infected SulT1 cells); experiment: Cell-associated transmission assay (IIIB); settings: for EC50: Human immunodeficiency virus 1, IIIB
Method: as §1

HIV-1 = experiment: Anti-HIV activity overall (cell-free and cell-associated assays) and antiviral index
Source text: Table 2, Table 3 and Table 4 illustrate the anti-HIV-1 activities against the cell-free, cell-associated, and multidrug-resistant virus and sperm inhibiting properties of the selected compounds. In summary, the anti-HIV activity of 5′-substituted derivatives of FLT and AZT (5–18) was dependent on the nature of the 5′-substituent. […] None of the other esters were active against cell-associated virus. […] The difference in the activity of fatty acyl derivatives of FLT compared to each other and FLT may be due to their differences in the rate of uptake and intracellular hydrolysis.
By design, the ester moiety in the conjugates needs to be hydrolyzed to render parent nucleosides and fatty acids to produce anti-HIV activity. The anti-HIV activities of 5′-O-ether substituted FLT and AZT (3 and 4, Scheme 2) with a stable tetradecanyl (myristyl) group were compared with hydrolyzable 5′-O-ester substituted FLT and AZT (6 and 7).
as §1

[6] = Table 2, single-round infection assay, read-out: (X4) EC50
[7] = Table 3, viral entry inhibition assay, read-out: (X4) EC50
[8] = Table 2, MTS, 50% effective concentration
[9] = Table 3, conjugates vs physical mixtures
[10] = Table 2, single-round infection assay, read-out: (R5) EC50
[11] = Table 3, viral entry inhibition assay, read-out: (R5) EC50
[12] = read-out: (CA) EC50, Table 2, cell-associated transmission assay (IIIB)
[13] = read-out: (CA) EC50, Table 3, cell-to-cell transmission assay (IIIB)
[14] = read-out: (X4) EC50, Table 2, single-round infection assay
[15] = read-out: (R5) EC50, Table 2, single-round infection assay
[16] = read-out: (X4) EC50, Table 3, viral entry inhibition assay
[17] = read-out: (R5) EC50, Table 3, viral entry inhibition assay

SMILES	EC50 (Cytotoxicity assay (MTS); [8]) [µM]	EC50 [5, 12] [µM]	EC50 [1, 14] [µM]	EC50 [2, 15] [µM]	further results
Cc1cn([C@H]2C[C@H](F)[C@@H](CO)O2)c(=O)[nH]c1=O [FLT, 3′-fluoro-2′,3′-dideoxythymidine]	> 410	> 410			EC50 [1, 6]: 0.8 µM; EC50 [1, 7]: 0.8 µM; EC50 (Cytotoxicity assay (MTS); [9]): > 410 µM; EC50 [2, 10]: 0.4 µM; EC50 [2, 11]: 0.4 µM; IC50 [3]: 0.002 µM; IC90 [3]: 0.0123 µM; IC50 (HIV-1 4755-5 MDR (B-MDR)): 0.107 µM; IC90 (HIV-1 4755-5 MDR (B-MDR)): 1.06 µM; IC50 (HIV-1 A-17 MDR (B-NNRTI)): 0.026 µM; IC90 (HIV-1 A-17 MDR (B-NNRTI)): 0.0872 µM; IC50 [4]: 0.002 µM; IC90 [4]: 0.0204 µM; activity against cell-associated virus (in words) [5]: only inconsistently and moderately active; also recorded: not active at all; EC50 [5, 13]: > 410 µM
CCCCCCCCCCOCCC(=O)OC[C@H]1O[C@@H](n2cc(C)c(=O)[nH]c2=O)C[C@@H]1N=[N+]=[N-] [Compound 17]	> 209	> 209	6.7	2.1	
Cc1cn(C2CC(F)C(COC(=O)CCCCCCCCCCCN)O2)c(=O)[nH]c1=O (stereo not shown) [Compound 22, 3′-Fluoro-2′,3′-dideoxy-5′-O-(12-aminododecanoyl)thymidine]	> 226	> 227	3.4	1.6	anti-HIV activity (in words) (HIV-1): comparable to other fatty acyl derivatives of FLT
CCCCCCCCCCCCCC(=O)OC[C@H]1O[C@@H](n2cc(C)c(=O)[nH]c2=O)C[C@@H]1N=[N+]=[N-] [Compound 7]	> 629	> 629	3.1	5	EC50 [1, 16]: 3.1 µM; EC50 (Cytotoxicity assay (MTS); [9]): > 629 µM; EC50 [2, 17]: 5 µM; EC50 [5, 13]: > 629 µM
CCCCCCCCCCCCC(OC)C(=O)OC[C@H]1O[C@@H](n2cc(C)c(=O)[nH]c2=O)C[C@@H]1N=[N+]=[N-] (mixture of isomers) [Compound 14, (±)-3′-Azido-2′,3′-dideoxy-5′-O-(2-methoxyteradecanoyl)thymidine]	> 197	> 197	9.7	6.7	
Cc1cn([C@H]2C[C@H](F)[C@@H](COC(=O)CCCCCCCCCCCBr)O2)c(=O)[nH]c1=O [Compound 11]	> 198	> 198	1.8	< 0.2	
CCSCCCCCCCCCCCC(=O)OC[C@H]1O[C@@H](n2cc(C)c(=O)[nH]c2=O)C[C@@H]1N=[N+]=[N-] [Compound 9]	> 101	90.7	7.7	5.2	
CCCCCCCCCCCCCCOCC1OC(n2cc(C)c(=O)[nH]c2=O)CC1F (stereo not shown) [Compound 3, 3′-Fluoro-2′,3′-dideoxy-5′-O-(tetradecanyl)thymidine]	179	> 227	180	176	anti-HIV activity (in words) (HIV-1): significantly less potent than the corresponding ester derivatives
Cc1cn([C@H]2C[C@H](N=[N+]=[N-])[C@@H](CO)O2)c(=O)[nH]c1=O [AZT, 3′-azido-2′,3′-dideoxythymidine, reference compound]	> 375	> 375			EC50 [1, 6]: 10.9 µM; EC50 [1, 7]: 10.9 µM; EC50 (Cytotoxicity assay (MTS); [9]): > 374 µM; EC50 [2, 10]: 14.2 µM; EC50 [2, 11]: 14.2 µM; activity against cell-associated virus (in words) [5]: only inconsistently and moderately active; EC50 [5, 13]: > 374 µM
CCCCCOCCCCCCCC(=O)OC[C@H]1O[C@@H](n2cc(C)c(=O)[nH]c2=O)C[C@@H]1N=[N+]=[N-] [Compound 18]	> 209	> 209	4.8	6.1	
CCCCCCCCCCCCC(OC)C(=O)OC[C@H]1O[C@@H](n2cc(C)c(=O)[nH]c2=O)C[C@@H]1F (mixture of isomers) [Compound 13, (±)-3′-Fluoro-2′,3′-dideoxy-5′-O-(2-methoxyteradecanoyl)thymidine]	> 206	> 206	1	0.2	anti-HIV activity (in words) (HIV-1): significant anti-HIV activity at noncytotoxic concentrations
CCCCCCCCCCCCCCOCC1OC(n2cc(C)c(=O)[nH]c2=O)CC1N=[N+]=[N-] (stereo not shown) [Compound 4, 3′-Azido-2′,3′-dideoxy-5′-O-(tetradecanyl)thymidine]	205	> 216	125	27.6	anti-HIV activity (in words) (HIV-1): significantly less potent than the corresponding ester derivatives
Cc1cn([C@H]2C[C@H](N=[N+]=[N-])[C@@H](COC(=O)CCCCCCCCCCCBr)O2)c(=O)[nH]c1=O [Compound 12]	> 190	> 190	14.8	4.6	EC50 [1, 16]: 14.8 µM; EC50 (Cytotoxicity assay (MTS); [9]): > 190 µM; EC50 [2, 17]: 4.6 µM; EC50 [5, 13]: > 190 µM
CCCCCSCCCCCCCC(=O)OC[C@H]1O[C@@H](n2cc(C)c(=O)[nH]c2=O)C[C@@H]1F [Compound 15]	> 64	> 64	11.4	4.4	
CCCCCCCCCCCCCCC(=O)OC[C@H]1O[C@@H](n2cc(C)c(=O)[nH]c2=O)C[C@@H]1N=[N+]=[N-] [Compound 10]	> 611	> 611	17.9	4.5	
CCCCCSCCCCCCCC(=O)OC[C@H]1O[C@@H](n2cc(C)c(=O)[nH]c2=O)C[C@@H]1N=[N+]=[N-] [Compound 16]	> 202	> 202	9.3	12.9	
